Entries after “also recorded” stand apart in the source; their conditions may differ.
Columns and labels:
IGF1R [1] = assay: IGF1R level by immunoblotting in transfected MDA-231 cells; type: cell-based, human
Procedure: (§1) The human and murine cell lines used in this study were cultured in RPMI 1640 plus 10% FCS at 37° C. in a humidified atmosphere of 5% CO2. The cultures were negative when tested for Mycoplasma infection. Cultures were passaged the day before transfection to achieve 30-50% confluence the following day. Initial transfections of ASOs used 1-2.5 μg/ml Cytofectin (Glen Research, Sterling, Va.), according to the manufacturer's instructions. Latterly Oligofectamine (Life Sciences) has been used for all ASO and RNAi transfections. The method was as described (see manufacturer's instructions and www.dharmacon.com) with minor modifications. For transfection of monolayers seeded in 6 well plates, 5 μl phosphorothioate oligonucleotide or RNA duplex at 100× final concentration were mixed with 2501 serum-free Optimem (Gibco-BRL). In a separate tube 2 μl Oligofectamine was mixed with 68 μl Optimem. After 10 min incubation at room temperature the contents of the two tubes were mixed and incubated for a further 25 min at room temperature. Monolayers were washed with 1-2 ml Optimem. To the cells were added 175 μl Optimem followed by the 325 μl complexes. Volumes were scaled up by factors of 2.22 or 6.05 for transfection in 60 mm or 100 mm dishes respectively. Cultures were incubated at 37° C. for 4 hr, and then 50 μl FCS and 3.5 ml RPMI plus 5% FCS were added to each well. After 48 hr incubation effects on IGF1R and IR expression were determined by immunoblotting. Some transfected cultures were serum-starved overnight, divided into two aliquots and treated with 10 nM Long R3-IGF-I (GroPep, Adelaide) or diluent for 30 min at 37° C. prior to lysis.
(§2) IGF1R expression was assessed by immunoblotting as previously described (Macaulay et al 2001). After washing in ice-cold PBS, cells were lysed in 50 mM Hepes pH 7.5, 100 mM NaCl, 10 mM EDTA, 1% Triton-X-100, 4 mM sodium pyrophosphate, 2 mM sodium orthovanadate, 10 mM sodium fluoride, 1 mM PMSF, 2 μg/ml each leupeptin and aprotinin. Lysates were centrifuged for 15 minutes at 14,000 g, the protein concentration of supernatants was measured using BCA assay reagent (Pierce), and equivalent amounts of protein were separated on 7.5% SDS-PAGE gels and transferred to nitrocellulose. Target protein levels were assessed using antibodies to the β-subunit of the IGF1R or IR (Santa Cruz), phospho-Ser 473 Akt or total Akt (Cell Signalling, New England Biolabs) or β-tubulin (Sigma). Activated IGF1R was detected by immunoprecipitation for phosphotyrosine (P-Tyr-100, Cell Signaling Technology). Primary antibodies were detected with HRP-conjugated secondary antibodies (Dako), and ECL Plus (Amersham Pharmacia).
The ASOs and RNAi duplexes were transfected into MDA-231 cells (human ER negative breast cancer) using Cytofectin or Oligofectamine, as described above. After 48 hr the cells were lysed, and IGF1R and IR levels were measured by immunoblotting. The intensity of the autoradiographic bands was quantified by densitometry, and IGF1R (or IR) levels were corrected for loading differences. The specific IGF1R or IR results are presented as % IGF1R (or IR) level of that in cells transfected with the same concentration of an appropriate control. This was a scrambled control oligonucleotide for ASOs, and an inverted RNA duplex for RNAi.

IGF1R [2] = assay: IGF1R Western blot in prostate cancer cells transfected with siRNA TSS; type: cell-based, human; settings: for IGF1R level, % of levels in cells treated with control duplex: 48 hours after transfection
Procedure: Prostate cancer cells were transfected with 200 nM siRNA TSS homologous to nt 166-186 of the IGF1R gene or inverted sequence control.
as §1, §2

[3] = system: Human prostate cancer cells; assay: Clonogenic survival of human prostate cancer cells transfected with siRNA TSS; type: cell-based; settings: all three prostate cancer cell lines (DU145, PC3, LNCaP), 200 nM
Procedure: FIG. 18 illustrates how IGF1R gene silencing inhibits survival of prostate cancer cells. Human prostate cancer cells were transfected with 200 nM TSS or control duplex. After 48 hr the cells were disaggregated and re-seeded in 10 cm dishes (2000 cells/dish). After 1-3 weeks incubation (depending on the cell line), visible colonies were stained and counted. Bars show mean±sem of triplicate dishes. **p<0.01, ***p<0.001 for comparison of survival in cultures treated with TSS versus control duplex.

[4] = system: Human EJ28 invasive bladder carcinoma cells; assay: Survival and mitomycin-C sensitivity of EJ28 invasive bladder carcinoma cells; type: cell-based; settings: human bladder cancer cells
Procedure: FIG. 20 illustrates that IGF1R gene silencing inhibits survival and enhances chemosensitivity of invasive bladder cancer. Human EJ28 invasive bladder carcinoma cells were transfected with 200 nM TSS or control duplex. After 48 hr the cells were disaggregated and re-seeded. To measure survival, 2000 cells were seeded in 10 cm dishes. Survival in TSS-transfected cells was only 0.2% of that in control-treated cultures, p<0.001). For chemosensitivity testing, cells were re-seeded into 96-well plates. The following day cultures were treated with mitomycin-C at the indicated concentrations for 24 hours, after which the medium was changed. After a further 4 days, growth was measured by calorimetric assay (MTS assay).

DU145 and PC3 cells = assay: Radio- and chemosensitivity of prostate cancer cells after IGF1R gene silencing (clonogenic, change in IC50); type: cell-based, human; settings: 200 nM duplex (FIG. 19)
Procedure: FIG. 19 illustrates that IGF1R gene silencing enhances chemosensitivity of androgen-resistant prostate cancer. PC3 cells were transfected with 200 nM TSS (red line) or scrambled sequence control duplex (green). After 48 hr the cells were disaggregated and re-seeded in 10 cm dishes (4000 cells/dish). The following day the cultures were treated with mitoxantrone at the indicated concentrations for 24 hours, after which the medium was changed and cells were allowed to survive to form colonies (>50 cells). Dotted lines mark IC501 dose required to inhibit survival to 50% untreated level.
Furthermore, IGF1R gene silencing appeared to enhance prostate cancer radio- and chemo-sensitivity (FIG. 19). The alteration in sensitivity was calculated as change in IC50, the concentration of drug/irradiation required to reduce the colony count to 50% of that in untreated cultures, as follows: [formula]

B16 melanoma cells = assay: Growth in vivo of B16 melanoma cells transfected with RNA duplexes; settings: B16 cells transfected with 200 nM duplex on three consecutive days, flanks of C57BL mice
Procedure: FIG. 8 illustrates growth in vivo in C57BL mice of B16 melanoma cells transfected with RNA duplexes. B16 melanoma cells were transfected with 200 nM duplexes (RNA22 is R2, Inv22 is Inv2) or oligofectamine alone (OF) for three consecutive days. On the 4th day cells were injected into the flanks of C57BL mice, using 2.5×10^5 cells/mouse, using groups of 5 mice. Tumours were measured in 2 dimensions every 2-3 days. Tumour volumes were calculated as n(a×b^2)/6 where a is the larger and b the smaller dimension.
B16 cells were transfected with 200 nM RNA duplexes (RNA22=R2, 22Inv=Inv2) or oligofectamine alone (OF) for three consecutive days. On the 4th day cells were injected into the flanks of C57BL mice, using 2.5×10^5 cells/mouse, using groups of 5 mice. Tumours were measured in 2 dimensions every 2-3 days. Tumour volumes were calculated as n(a×b^2)/6 where a is the larger and b the smaller dimension.

IGF1R [5] = assay: IGF1R levels by immunoblotting in B16 murine melanoma cells transfected with RNAi duplexes; type: cell-based; settings: 10 nM duplex, 48 hr
Procedure: The human and murine cell lines used in this study were cultured in RPMI 1640 plus 10% FCS at 37° C. in a humidified atmosphere of 5% CO2. The cultures were negative when tested for Mycoplasma infection. Cultures were passaged the day before transfection to achieve 30-50% confluence the following day. Initial transfections of ASOs used 1-2.5 μg/ml Cytofectin (Glen Research, Sterling, Va.), according to the manufacturer's instructions. Latterly Oligofectamine (Life Sciences) has been used for all ASO and RNAi transfections. The method was as described (see manufacturer's instructions and www.dharmacon.com) with minor modifications. […] After 48 hr incubation effects on IGF1R and IR expression were determined by immunoblotting. […]
IGF1R expression was assessed by immunoblotting as previously described (Macaulay et al 2001). […] Lysates were centrifuged for 15 minutes at 14,000 g, the protein concentration of supernatants was measured using BCA assay reagent (Pierce), and equivalent amounts of protein were separated on 7.5% SDS-PAGE gels and transferred to nitrocellulose. Target protein levels were assessed using antibodies to the β-subunit of the IGF1R or IR (Santa Cruz), phospho-Ser 473 Akt or total Akt (Cell Signalling, New England Biolabs) or β-tubulin (Sigma). Activated IGF1R was detected by immunoprecipitation for phosphotyrosine (P-Tyr-100, Cell Signaling Technology). […]

IGF-I signaling to Akt = assay: IGF signalling: phosphorylation of IGF1R β-subunit and Akt after IGF-I in transfected MDA-MB-231 cells; type: cell-based, human; settings: MDA-MB-231, 100 nM duplexes, 50 nM IGF-1 for 30 min
Procedure: as §2
MDA-MB-231 cells transfected with 100 nM RNA duplexes were serum-starved overnight and treated with 50 nM IGF-1 or diluent for 30 min. The cells were lysed and lysates were analysed by immunoblotting for IGF1R, phospho-Ser473-Akt and total Akt, and by phosphotyrosine immunoprecipitation and IGF1R immunoblotting to detect phosphorylated IGF1R β-subunit (see FIG. 7).

IGF1R [6] = assay: IGF1R levels by immunoblotting in human tumour cell lines transfected with RNAi duplexes; type: cell-based; settings: for IGF1R level as % of levels in cells transfected with inverted control duplex: 10 nM duplex, 48 hr
Procedure: as §1
as §2, with “Pharmacia). […]” for “Pharmacia).”
Tumour cells were transfected with 10 nM duplexes and IGF1R levels were measured after 48 hr. After correction for loading differences IGF1R levels in cells transfected with RNAi were expressed as % of levels in cells transfected with equivalent inverted control duplex.

[7] = system: UC101 human ovarian cancer cells; assay: Tumorigenicity of UC101 ovarian cancer cells transfected with siRNA (xenografts); type: in vivo, female athymic (nu/nu mice); settings: UC101 cells transfected with 200 nM siRNA, nu/nu mice
Procedure: UC101 ovarian cancer cells were transfected with 200 nM siRNA, mixed with irradiated NIH-3T3 cells and inoculated into the flanks of female athymic (nu/nu mice).
Tumorigenicity testing was conducted using UC101 human ovarian cancer cells transfected with 200 nM siRNA. After 48 hr the cells were inoculated into the flanks of female athymic (nu/nu mice), using 5×10^6 tumour cells mixed with 5×10^6 irradiated NIH-3T3 cells per mouse. Tumours were measured and volumes calculated as described (Macaulay et al., Oncogene 20: 2029-40, 2001). All procedures were performed in accordance with the Home Office Scientific Procedures Act 1986, and with the approval of the Animal Ethics Committee of Cancer Research UK.

| Substance | IGF1R gene silencing (IGF1R [1]; MDA-MB-231 human breast carcinoma cells) | IGF1R level, % of levels in cells treated with control duplex (IGF1R [2]; DU145, 200 nM) | IGF1R level, % of levels in cells treated with control duplex (IGF1R [2]; LNCaP, 200 nM) | IGF1R level, % of levels in cells treated with control duplex (IGF1R [2]; PC3, 200 nM) | Inhibition of IGF1R expression (IGF1R [2]; all three prostate cancer cell lines (DU145, PC3, LNCaP)) | Inhibition of clonogenic survival [3] | Clonogenic survival [4] | Sensitivity to mitomycin-C ([4]; MTS assay) | Change in mitoxantrone IC50 (DU145 and PC3 cells) | Tumour growth in vivo compared with inverted control RNA duplex (B16 melanoma cells) | IGF1R level as % of levels in cells transfected with inverted control duplex (IGF1R [5]) | Inhibition of IGF1R expression on immunoblot (IGF1R [1]; MDA-231 breast cancer cells, 10-200 nM) | IGF-I signaling to Akt / IGF-1-induced phosphorylation (IGF-I signaling to Akt) | IGF1R level as % of levels in cells transfected with inverted control duplex (IGF1R [6]; A549 human non-small cell lung) | IGF1R level as % of levels in cells transfected with inverted control duplex (IGF1R [6]; DU145 human prostate cancer) | IGF1R level as % of levels in cells transfected with inverted control duplex (IGF1R [6]; ME human melanoma) | Inhibition of IGF1R expression on immunoblot (IGF1R [6]; ME melanoma cells, 10-200 nM) | IGF1R downregulation compared between 21mer duplexes (IGF1R [1]; MDA-231 cells, 0.5, 5 and 50 nm (FIG. 5)) | Tumour development [7] | IGF1R downregulation (IGF1R [6]; 10 nM, human ME melanoma and A549 NSCLC) |
| --- | --- | --- | --- | --- | --- | --- | --- | --- | --- | --- | --- | --- | --- | --- | --- | --- | --- | --- | --- | --- |
| siRNA TSS: 21mer duplex homologous to nucleotides 166-186 of the IGF1R transcript, CGACUAUCAGCAGCUGAAGTT / TTGCUGAUAGUCGUCGACUUC, SEQ ID NO:37 (CGACUAUCAGCAGCUGAAGNN; second strand not cited, chemistry not fully specified) | induce IGF1R gene silencing | 18% | 17% | 22% | significant inhibition | significant inhibition | profound inhibition of clonogenic survival | enhancement of sensitivity to mitomycin-C | −2 fold |  |  |  |  |  |  |  |  |  |  |  |
| R2: RNAi duplex GCCGAUGUGUGAGAAGACCTT / TTCGGCUACACACUCUUCUGG, SEQ ID NO:23 (sense GCCGAUGUGUGAGAAGACCNN; chemistry not fully specified; one strand is listed 3' to 5') |  |  |  |  |  |  |  |  |  | reduced growth rate in vivo | 45 ± 4% | almost complete inhibition of IGF1R expression | could not detect IGF-1-induced phosphorylation of the IGF1R β-subunit or of Akt | 22 ± 2% | 34 ± 13% | 53 ± 3% | almost complete inhibition of IGF1R expression |  |  |  |
| R6: RNAi duplex CUACAUUGUGGGGAAUAAGTT / TTGAUGUAACACCCCUUAUUC, SEQ ID NO:34 (CUACAUUGUGGGGAAUAAGNN; second strand not cited, chemistry not fully specified) |  |  |  |  |  |  |  |  |  |  | 72 ± 14% |  | not sufficient to abolish IGF-I signaling to Akt | 102 ± 16% | 74 ± 8% | 104 ± 5% |  | significantly less potent; also recorded: less than the effect of the mutant duplex Mut2 | rapidly growing tumours | essentially inactive |

From US20050255493A1, “Molecular targeting of the IGF-1 receptor” (priority 2002, published 2005)
